Assay results reported in US8263623B2, “Triazol derivatives useful for the treatment of diseases” (Pfizer Inc., priority 2008, dated 2012).

Experiments:
[1] = target: human muscarinic M3 receptor (Homo sapiens, UniProt P20309); assay: hM3 competition binding assay (3H-NMS) on CHO cell membranes; conditions: 24 hr at RT, IC50 corrected by Cheng-Prussoff equation
Description: Binding Affinity Assessment at the Human Recombinant M3 Muscarinic Receptor
Cell Pellets from CHO (Chinese Hamster Ovary) cells recombinantly expressing the human muscarinic M3 receptor were homogenised in 20 mM HEPES (pH7.4) and centrifuged at 48000×g for 20 min at 4° C. The pellet was re-suspended in buffer and the homogenisation and centrifugation steps repeated. The resulting pellet was re-suspended in 1 ml buffer per 1 ml original packed cell volume and the homogenisation step repeated. Protein estimation was carried out on the suspension and 1 ml aliquots of ˜1 mg/ml frozen at −80° C.
hM3 Competition Binding Assay Protocol
Membranes (5 μg/well) were incubated with ^3H-NMS (at a concentration 5×KD) plus/minus test compound for 24 hr at RT (room temperature) in a 1 ml polystyrene 96-well deep well block. The final assay volume was 200 μl, comprising of: 20 μl plus/minus test compound; 20 μt, ^3H-NMS (Perkin Elmer NEN 636) and 160 μl membrane solution. Total Binding was defined with 0.1% DMSO; Non-Specific Binding was defined with 1 μM Atropine. Assay buffer was 20 mM Hepes (pH 7.4).
Once all assay components were added, plates were covered and incubated at room temperature for 24 hrs with shaking. The assay was terminated by rapidly filtering through GF/B Unifilter plates pre-soaked with 0.5% polyethylenimine, using a Packard filtermate harvester, the filter plate was then washed with 3×1 ml 4° C. assay buffer. The filter plates were dried at 45° C. for 1 hour. The bottoms of the filter plates were sealed and 50 μl/well of Microscint ‘0’ added, the top of the plates were sealed with a Topseal. Following 90 mins, the plates were read on an NXT Topcount (1 minute read time per well).
The resulting data was expressed as a percentage of the specific binding (Specific binding=Total binding−Non-Specific Binding). % specific binding versus test compound concentration was plotted to determine an IC50 from a sigmoid curve using an in-house data analysis programme. IC50 values corrected to Ki values by applying the Cheng-Prussoff equation:
(§1) [formula] where IC50 is the concentration of unlabelled drug which inhibits by 50% the specific radioligand binding. [L] is the free radioligand concentrations and KD and Ki are the equilibrium dissociation constants of the radioligand and unlabelled drug respectively. Functional Assessment of Agonist Potency and Efficacy Using a Whole cell cAMP Assay in CHO Cells Expressing the hβ2 Receptor Cell Culture

[2] = target: human adrenergic β2 receptor (Homo sapiens, UniProt P07550); assay: hβ2 cAMP assay: whole cell cAMP assay in CHO cells expressing the hβ2 receptor; type: cell-based; conditions: CHO cells recombinantly expressing human β2 receptor; for Emax: agonist efficacy, 100 nM Formoterol control; for EC50: agonist potency
Sequence of human adrenergic β2 receptor (P07550 whole entry): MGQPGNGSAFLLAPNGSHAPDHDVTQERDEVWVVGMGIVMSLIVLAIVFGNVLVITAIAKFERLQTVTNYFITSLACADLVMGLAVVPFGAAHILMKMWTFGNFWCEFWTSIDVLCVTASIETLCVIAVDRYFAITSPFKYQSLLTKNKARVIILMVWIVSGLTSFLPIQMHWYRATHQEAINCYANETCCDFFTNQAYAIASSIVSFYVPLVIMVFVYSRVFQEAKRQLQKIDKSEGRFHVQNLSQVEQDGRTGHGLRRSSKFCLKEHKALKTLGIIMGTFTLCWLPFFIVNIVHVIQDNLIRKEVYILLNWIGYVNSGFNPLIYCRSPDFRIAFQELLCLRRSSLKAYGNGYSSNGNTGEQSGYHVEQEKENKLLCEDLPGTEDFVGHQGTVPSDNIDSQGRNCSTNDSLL
Excerpt: as §1
CHO (Chinese Hamster Ovary) cells recombinantly expressing the human adrenergic β2 receptor were maintained in growth media composed of F12:DMEM (Gibco 21331-020) containing 10% Foetal Bovine Serum (FBS: Sigma F4135), 10 μg/ml puromycin (Sigma P8833), 0.1 mg/ml Geneticin G418 (Sigma G7034) and 2 mM L-glutamine (Sigma G7513). The cells were kept in sterile conditions at 37° C., in an atmosphere containing 5% CO2.
Cells were harvested for assay when they reached 80-90% confluency using trypsin 0.25% (Sigma T4049) incubated with the cells for 5 min at 37° C. in an atmosphere containing 5% CO2. Detached cells were collected in warmed growth media (composition described above), and re-suspended in assay media (F12:DMEM (Gibco 21331-020) containing 1% Foetal Bovine Serum (FBS: Sigma F4135) and 2 mM L-glutamine (Sigma G7513)) to give a viable cell concentration of 0.25×10^6 cells/ml. 100 μl of this suspension was added to each well of a tissue culture treated 96 well view-plate (PerkinElmer 6005181) and the plate incubated in an atmosphere containing 5% CO2 at 37° C. overnight. The following day, cells were washed (4×200 μl, Skatron Skanstacker 300) with Phosphate Buffered Saline (PBS). The plates were then pat dried and the media replaced with 50 μl PBS plus 0.5 mM isobutylmethylxanthine (IBMX) (Sigma I5879) before returning to the incubator for 30 mins. The PBS plate wash procedure was repeated, followed by the addition of 50 μl PBS plus 0.5 mM IBMX and 50 μl PBS plus 2% DMSO and the plates returned to the incubator for 30 mins. Concentration ranges of test compounds were prepared in PBS containing 2% DMSO. The PBS plate wash procedure was repeated, and then 50 μl PBS plus 0.5 mM IBMX was added to the assay plates, followed by the addition of 50 μl of each compound test concentration to the appropriate well. 50 μl per well of 2% DMSO or 200 nM Formoterol was added to the control wells, giving a final assay concentration of 1% DMSO or 100 nM Formoterol. Plates were returned to the incubator for a further 30 mins. At the end of the incubation period the PBS plate wash procedure was repeated a final time as described above. The plates were pat dried and 30 μl per well PBS added followed by 40 μl per well cAMP II ED/Substrate mix and 40 μl per well cAMP II EA-Ab/lysis mix (DiscoverX 90-0034-03). The plates were then incubated in the dark for a minimum of 4 hours at room temperature. The plates were read using a Fusion plate reader (luminescence protocol, each well read for 1 second). Concentration effect curves were plotted and EC50 & Emax values determined using a 4-parameter sigmoid fit generated using an in-house data analysis programme. Formoterol and salmeterol were run in every assay as reference standards.

Sequence of human muscarinic M3 receptor (P20309 whole entry): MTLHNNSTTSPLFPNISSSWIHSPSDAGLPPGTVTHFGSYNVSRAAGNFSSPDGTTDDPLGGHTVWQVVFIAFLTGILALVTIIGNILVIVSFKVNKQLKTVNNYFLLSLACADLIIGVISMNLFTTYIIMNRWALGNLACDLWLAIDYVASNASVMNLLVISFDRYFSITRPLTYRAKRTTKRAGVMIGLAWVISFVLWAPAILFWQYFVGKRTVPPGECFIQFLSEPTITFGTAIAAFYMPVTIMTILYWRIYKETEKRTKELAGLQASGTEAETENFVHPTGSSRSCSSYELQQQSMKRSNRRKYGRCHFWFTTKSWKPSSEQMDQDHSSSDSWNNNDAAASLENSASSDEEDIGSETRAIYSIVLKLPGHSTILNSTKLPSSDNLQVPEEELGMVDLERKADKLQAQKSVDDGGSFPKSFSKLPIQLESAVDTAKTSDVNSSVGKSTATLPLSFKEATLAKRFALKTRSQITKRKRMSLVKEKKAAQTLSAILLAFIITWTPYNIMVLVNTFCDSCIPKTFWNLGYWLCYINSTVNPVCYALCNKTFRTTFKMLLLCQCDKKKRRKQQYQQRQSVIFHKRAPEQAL

SMILES | Ki [1] [nM] | Emax [2] [%] | EC50 [2] [nM]
O=c1ccc2c([C@@H](O)CNCCCCCCCCCN3CCC(Cn4cnc([C@](O)(c5ccccc5)C5CCCCC5)n4)CC3)ccc(O)c2[nH]1 [Example 1, 5-[(1R)-2-({9-[4-({3-[(R)-cyclohexyl(hydroxy)phenylmethyl]-1H-1,2,4-triazol-1-yl}methyl)piperidin-1-yl]nonyl}amino)-1-hydroxyethyl]-8-hydroxyquinolin-2(1H)-one] | 0.57 | 103 | 14
O=c1ccc2c([C@@H](O)CNCCc3ccc(CCN4CCC(Cn5cnc([C@](O)(c6ccccc6)C6CCCCC6)n5)CC4)cc3)ccc(O)c2[nH]1 [Example 2, 5-[(1R)-2-{[2-(4-{2-[4-({3-[(R)-cyclohexyl(hydroxy)phenylmethyl]-1H-1,2,4-triazol-1-yl}methyl)piperdin-1-yl]ethyl}phenyl)ethyl]amino}-1-hydroxyethyl]-8-hydroxyquinolin-2(1H)-one] | 0.153 | 106 | 21.6
O=c1ccc2c([C@@H](O)CNCCCCCCCCCN3CCC(Cn4cnc(C(O)(c5ccccc5)C5CCCCC5)n4)CC3)ccc(O)c2[nH]1 (stereo partly drawn) [Example 3, 5-[(1R)-2-({9-[4-({3-[cyclohexyl(hydroxy)phenylmethyl]-1H-1,2,4-triazol-1-yl}methyl)piperdin-1-yl]nonyl}amino)-1-hydroxyethyl]-8-hydroxyquinolin-2(1H)-one] | 0.924 | 91 | 20.6
O=c1ccc2c([C@@H](O)CNCCCCCCCCCN3CCC(Cn4cnc(C(O)(c5ccccc5)c5ccccc5)n4)CC3)ccc(O)c2[nH]1 [Example 4, 8-hydroxy-5-[(1R)-1-hydroxy-2-({9-[4-({3-[hydroxy(diphenyl)methyl]-1H-1,2,4-triazol-1-yl}methyl)piperdin-1-yl]nonyl}amino)ethyl]quinolin-2(1H)-one] | 0.505 | 90 | 13
O=c1ccc2c([C@@H](O)CNCCc3ccc(CCN4CCC(Cn5cnc(C(O)(c6ccccc6)c6ccccc6)n5)CC4)cc3)ccc(O)c2[nH]1 [Example 5, 8-hydroxy-5-[(1R)-1-hydroxy-2-{[2-(4-{2-[4-({3-[hydroxy(diphenyl)methyl]-1H-1,2,4-triazol-1-yl}methyl)piperidin-1-yl]ethyl}phenyl)ethyl]amino}ethyl]quinolin-2(1H)-one] | 2.49 | 95 | 116
